Experimental data from patent US7199131B2, “Sulfonamide and sulfamide substituted imidazoquinolines” (3M Innovative Properties Company, priority 2001, dated 2007).

Tests used:
interferon (α) = assay: Cytokine Induction in Human Cells: interferon (α) secreted by PBMCs, ELISA; assay type: cell-based; conditions: PBMC, incubated 18 to 24 hours, lowest concentration found to induce interferon
Excerpt: (§1) An in vitro human blood cell system was used to assess cytokine induction by compounds of the invention. Activity is based on the measurement of interferon and tumor necrosis factor (α) (IFN and TNF, respectively) secreted into culture media as described by Testerman et. al. In “Cytokine Induction by the Immunomodulators Imiquimod and S-27609”, Journal of Leukocyte Biology, 58, 365–372 (September, 1995).
(§2) Whole blood is collected by venipuncture into EDTA vacutainer tubes from healthy human donors. Peripheral blood mononuclear cells (PBMCs) are separated from whole blood by density gradient centrifugation using Histopaque®-1077 (Sigma Chemicals, St. Louis, Mo.). The PBMCs are suspended at 3–4×10^6 cells/mL in RPMI 1640 medium containing 10% fetal bovine serum, 2 mM L-glutamine and 1% penicillin/streptomycin solution (RPMI complete). The PBMC suspension is added to 48 well flat bottom sterile tissue culture plates (Costar, Cambridge, Mass. or Becton Dickinson Labware, Lincoln Park, N.J.) containing an equal volume of RPMI complete media containing test compound.
(§3) The compounds are solubilized in dimethyl sulfoxide (DMSO). The DMSO concentration should not exceed a final concentration of 1% for addition to the culture wells.
(§4) The solution of test compound is added at 60 μM to the first well containing RPMI complete and serial (three fold or ten fold) dilutions are made. The PBMC suspension is then added to the wells in an equal volume, bringing the test compound concentrations to the desired range. The final concentration of PBMC suspension is 1.5–2×10^6 cells/mL. The plates are covered with sterile plastic lids, mixed gently and then incubated for 18 to 24 hours at 37° C. in a 5% carbon dioxide atmosphere.
(§5) Following incubation the plates are centrifuged for 5–10 minutes at 1000 rpm (˜200×g) at 4° C. The cell culture supernatant is removed with a sterile polypropylene pipette and transferred to sterile polypropylene tubes. Samples are maintained at −30 to −70° C. until analysis. The samples are analyzed for interferon (α) and tumor necrosis factor (α) by ELISA
Interferon (α) concentration is determined by ELISA using a Human Multi-Species kit from PBL Biomedical Laboratories, New Brunswick, N.J.
(§6) The table below lists the lowest concentration found to induce interferon and the lowest concentration found to induce tumor necrosis factor for each compound.

[1] = tested on: tumor necrosis factor (α); assay: Cytokine Induction in Human Cells: tumor necrosis factor (α) secreted by PBMCs, ELISA; assay type: cell-based; conditions: PBMC, incubated 18 to 24 hours, lowest concentration found to induce tumor necrosis factor
Excerpt: as §1, §2, §3, §4, §5
Tumor necrosis factor (α) (TNF) concentration is determined using ELISA kits available from Genzyme, Cambridge, Mass.; R&D Systems, Minneapolis, Minn.; or Pharmingen, San Diego, Calif.
as §6

For `COCCc1nc2c(N)nc3c(c2n1CCCNS(C)(=O)=O)CCCC3` [Example 259, N-{3-[4-amino-2-(2-methoxyethyl)-6,7,8,9-tetrahydro-1H-imidazo[4,5-c]quinolin-1-yl]propyl}methanesulfonamide], the melting point was 150 to 152 °C, the minimal effective concentration (interferon (α)) was 0.01 µM and the minimal effective concentration [1] was 10 µM.
Compound `CCOCc1nc2c(N)nc3c(c2n1CCCNS(C)(=O)=O)CCCC3` [Example 260, N-{3-[4-amino-2-(ethoxymethyl)-6,7,8,9-tetrahydro-1H-imidazo[4,5-c]quinolin-1-yl]propyl}methanesulfonamide] has a melting point of 212 to 214 °C, a minimal effective concentration (interferon (α)) of 0.01 µM and a minimal effective concentration [1] of 0.37 µM.
For `CS(=O)(=O)NCCCn1c(CCCOc2ccccc2)nc2c(N)nc3ccccc3c21` [Example 261, N-{3-[4-amino-2-(3-phenoxypropyl)-1H-imidazo[4,5-c]quinolin-1-yl]propyl}methanesulfonamide], the melting point was 176 to 178 °C, the minimal effective concentration (interferon (α)) was over 30 µM and the minimal effective concentration [1] was 10 µM.
For `CS(=O)(=O)NCCCCn1c(CCCOc2ccccc2)nc2c(N)nc3ccccc3c21` [Example 262, N-{4-[4-amino-2-(3-phenoxypropyl)-1H-imidazo[4,5-c]quinolin-1-yl]butyl}methanesulfonamide], the melting point was 156.4 to 157.1 °C, the minimal effective concentration (interferon (α)) was over 30 µM and the minimal effective concentration [1] was 10 µM.
With `CCCCc1nc2c(N)nc3ccccc3c2n1CCNS(=O)(=O)c1ccc(C)cc1` [Example 264, N-[2-(4-amino-2-butyl-1H-imidazo[4,5-c]quinolin-1-yl)ethyl]-4-methylbenzenesulfonamide] the melting point was 187 to 188 °C, the minimal effective concentration (interferon (α)) was 1.11 µM and the minimal effective concentration [1] was 1.11 µM.
With `CCCCc1nc2c(N)nc3ccccc3c2n1CCNS(C)(=O)=O` [Example 265, N-[2-(4-amino-2-butyl-1H-imidazo[4,5-c]quinolin-1-yl)ethyl]methanesulfonamide] the melting point was 210 to 211 °C, the minimal effective concentration (interferon (α)) was 0.01 µM and the minimal effective concentration [1] was 0.04 µM.
For `CCCCc1nc2c(N)nc3ccccc3c2n1CCCCN1CCCS1(=O)=O` [Example 267, 2-butyl-1-[4-(1,1-dioxidoisothiazolidin-2-yl)butyl]-1H-imidazo[4,5-c]quinolin-4-amine], the melting point was 173 to 176 °C, the minimal effective concentration (interferon (α)) was 0.01 µM and the minimal effective concentration [1] was 0.12 µM.
